Assay results reported in the NIST ThermoML archive (doi:10.1021/je050223a).

Assays:
[1] = 101.33 kPa, Liquid
[2] = xn = mol fraction of the nth substance listed; conditions: 101.33 kPa, Liquid

C=C(C)C(=O)OCCO [2-hydroxyethyl 2-methyl-2-propenoate]
[1]
Conditions	mass density [kg/m3]	viscosity [mPa·s]
298.15 K	1067.1	5.784
308.15 K	1057.7	4.194
318.15 K	1048.6	3.181

C=C(C)C(=O)OCCO [2-hydroxyethyl 2-methyl-2-propenoate] + CCOCCC(=O)OCC
[2], x2 = 0
Conditions	mass density [kg/m3]	viscosity [mPa·s]
298.15 K	1067.1	5.784
308.15 K	1057.7	4.194
318.15 K	1048.6	3.181

C=C(C)C(=O)O [2-methyl-2-propenoic acid]
[1]
Conditions	mass density [kg/m3]	viscosity [mPa·s]
298.15 K	1009.5	1.267
308.15 K	999.4	1.078
318.15 K	989.2	0.945

C=C(C)C(=O)O [2-methyl-2-propenoic acid] + CCOCCC(=O)OCC
[2], x2 = 0
Conditions	mass density [kg/m3]	viscosity [mPa·s]
298.15 K	1009.5	1.267
308.15 K	999.4	1.078
318.15 K	989.2	0.945

C=C(C)C(=O)OCc1ccccc1 [benzyl methacrylate]
[1]
Conditions	mass density [kg/m3]	viscosity [mPa·s]
298.15 K	1034.7	2.302
308.15 K	1025.8	1.885
318.15 K	1017	1.58

C=C(C)C(=O)OCc1ccccc1 [benzyl methacrylate] + CCOCCC(=O)OCC
[2], x2 = 0
Conditions	mass density [kg/m3]	viscosity [mPa·s]
298.15 K	1034.7	2.302
308.15 K	1025.8	1.885
318.15 K	1017	1.58

CCCCO [butan-1-ol]
[1]
Conditions	mass density, 298.15 K [kg/m3]	mass density, 303.15 K [kg/m3]	mass density, 308.15 K [kg/m3]	mass density, 313.15 K [kg/m3]	viscosity, 298.15 K [mPa·s]	viscosity, 303.15 K [mPa·s]	viscosity, 308.15 K [mPa·s]	viscosity, 313.15 K [mPa·s]
Capillary tube (Ostwald / Ubbelohde) method	–	–	–	–	2.566	2.265	1.998	1.778
Pycnometric method	805.6	802.1	798	794.5	–	–	–	–

CCOCCC(=O)OCC [ethyl β-ethoxypropionate]
[1]
Conditions	mass density [kg/m3]	viscosity [mPa·s]
298.15 K	943.2	1.176
308.15 K	933.4	0.996
318.15 K	923.3	0.859

CCOCCC(=O)OCC [ethyl β-ethoxypropionate] + C=C(C)C(=O)O
[2]
Conditions	mass density, 298.15 K [kg/m3]	mass density, 308.15 K [kg/m3]	mass density, 318.15 K [kg/m3]	viscosity, 298.15 K [mPa·s]	viscosity, 308.15 K [mPa·s]	viscosity, 318.15 K [mPa·s]
x1 = 0.1	1000.5	990.7	980.6	1.349	1.139	0.986
x1 = 0.1999	992.4	982.7	972.8	1.425	1.198	1.028
x1 = 0.3	984.9	975.1	965.2	1.504	1.257	1.075
x1 = 0.4	978.1	968.3	958.4	1.551	1.293	1.103
x1 = 0.5	971.5	961.7	951.9	1.516	1.262	1.08
x1 = 0.6	965.3	955.6	945.7	1.439	1.211	1.029
x1 = 0.7	959.5	949.8	939.8	1.369	1.156	0.982
x1 = 0.8	954.1	944.4	934.4	1.313	1.108	0.944
x1 = 0.8999	948.5	938.9	929.1	1.243	1.049	0.899
x1 = 1	943.2	933.4	923.3	1.176	0.996	0.859

CCOCCC(=O)OCC [ethyl β-ethoxypropionate] + C=C(C)C(=O)OCCO
[2]
Conditions	mass density, 298.15 K [kg/m3]	mass density, 308.15 K [kg/m3]	mass density, 318.15 K [kg/m3]	viscosity, 298.15 K [mPa·s]	viscosity, 308.15 K [mPa·s]	viscosity, 318.15 K [mPa·s]
x1 = 0.1	1053	1043.6	1034.4	4.507	3.352	2.598
x1 = 0.2	1039.1	1029.6	1020.3	3.696	2.821	2.239
x1 = 0.3	1025.6	1016.1	1006.6	3.072	2.379	1.918
x1 = 0.4	1012.7	1003.1	993.5	2.503	1.98	1.611
x1 = 0.5	1000.2	990.5	980.8	2.156	1.731	1.425
x1 = 0.6	988.1	978.4	968.6	1.833	1.495	1.243
x1 = 0.6999	976.5	966.8	956.9	1.627	1.34	1.127
x1 = 0.8	965.2	955.5	945.6	1.417	1.181	1.007
x1 = 0.9	954.3	944.6	934.6	1.269	1.065	0.911
x1 = 1	943.2	933.4	923.3	1.176	0.996	0.859

CCOCCC(=O)OCC [ethyl β-ethoxypropionate] + C=C(C)C(=O)OCc1ccccc1
[2]
Conditions	mass density, 298.15 K [kg/m3]	mass density, 308.15 K [kg/m3]	mass density, 318.15 K [kg/m3]	viscosity, 298.15 K [mPa·s]	viscosity, 308.15 K [mPa·s]	viscosity, 318.15 K [mPa·s]
x1 = 0.1	1027	1017.9	1008.9	2.16	1.767	1.479
x1 = 0.2	1019.1	1009.9	1000.7	2.027	1.664	1.398
x1 = 0.3	1010.9	1001.5	992.1	1.91	1.571	1.323
x1 = 0.4	1002.3	992.7	983.2	1.795	1.48	1.247
x1 = 0.4999	993.4	983.7	974	1.681	1.391	1.173
x1 = 0.6	984.2	974.4	964.5	1.569	1.303	1.101
x1 = 0.7	974.7	964.8	954.7	1.457	1.215	1.029
x1 = 0.8	964.9	954.9	944.6	1.347	1.129	0.961
x1 = 0.9	954.3	944.3	934.1	1.242	1.047	0.899
x1 = 1	943.2	933.4	923.3	1.176	0.996	0.859
